In US10501464B2, “7-oxo-6-(sulfooxy)-1,6-diazabicyclo[3.2.1]octane-2-carboxamide containing compounds and their use in treating bacterial infections” (WOCKHARDT LIMITED, priority 2015, dated 2019):
Like-named read-outs stand apart in the source and are kept apart here.

Columns and labels:
Assay in all cases: Antibacterial activity, MIC by agar dilution (CLSI)
Type in all cases: cell-based
E. coli 13351 = conditions: compound tested alone
Procedure: (§1) The biological activity of representative compounds according to the invention against various bacterial strains was investigated. In a typical study, overnight grown bacterial cultures were diluted appropriately and inoculated on the agar media containing doubling dilutions of the test compounds. Observations for growth or no growth was performed after 16-20 hours of incubation at 35±2° C. in the ambient air. The overall procedure was performed as per Clinical and Laboratory Standards Institute (CLSI) recommendations, (Clinical and Laboratory Standards Institute (CLSI), Performance Standards for Antimicrobial Susceptibility Testing, 20th Informational Supplement, M07-A9, Volume 32, No. 2, 2012). Molten Mueller Hinton Agar (BD, USA) containing serial dilutions of each antibacterial agent were poured on to the plates and allowed to solidify. Appropriate suspensions from the freshly grown cultures were prepared in normal saline so that about 10^4CFU/spot of the organism was delivered on to the drug containing agar plates using automated multipoint inoculator (Mast, UK). The plates were incubated in Biochemical oxygen demand (BOD) incubator at 37° C. for 18 hours and then examined for growth.
(§2) Method for the determination of MIC: The Minimum Inhibitory Concentration (MIC) determination for the combinations was carried out in Muller Hinton Agar (MHA) (BD, USA) according to Clinical and Laboratory Standards Institute (CLSI) recommendations, (Clinical and Laboratory Standards Institute (CLSI), Performance Standards for Antimicrobial Susceptibility Testing, 20th Informational Supplement, M 100-S20, Volume 30, No. 1, 2010). In short, the test strains were adjusted to deliver about 10^4CFU per spot with a multipoint inoculator (Applied Quality Services, UK). The plates were poured with MHA containing doubling concentration range of representative compounds according to present invention. The plates were inoculated and were incubated at 35° C. for 18 hour. […] The Table 2 depicts the antibacterial activity profile of compounds according to present invention against various multidrug resistant bacterial strains.

E. coli 13352 = conditions: compound tested alone
Procedure: as §1, §2

E. coli 13353 = conditions: compound tested alone
Procedure: as §1, §2

E. coli 7 MP = conditions: compound tested alone
Procedure: as §1, §2

E. coli H 483 = test system: E. coli H 483
Procedure: as §1, §2

E. coli M 138 = conditions: compound tested alone
Procedure: as §1, §2

E. coli M 36 = conditions: compound tested alone
Procedure: as §1, §2

E. coli M 49 = conditions: compound tested alone
Procedure: as §1, §2

E. coli M 50 = conditions: compound tested alone
Procedure: as §1, §2

[1] = test system: K. pneumoniae ATCC 700603
Procedure: as §1, §2

K. pneumoniae H 521 = conditions: compound tested alone
Procedure: as §1, §2

K. pneumoniae H 522 = conditions: compound tested alone
Procedure: as §1, §2

K. pneumoniae H 523 = conditions: compound tested alone
Procedure: as §1, §2

K. pneumoniae H 525 = conditions: compound tested alone
Procedure: as §1, §2

P. mirabilis S 137B = conditions: compound tested alone
Procedure: as §1, §2

[2] = Escherichia coli, 13351, E. coli 13351, read-out: MIC
[3] = Escherichia coli, 13352, E. coli 13352, read-out: MIC
[4] = Escherichia coli, 13353, E. coli 13353, read-out: MIC
[5] = Escherichia coli, 7MP, read-out: MIC
[6] = Escherichia coli, H483, compound tested alone, read-out: MIC
[7] = Escherichia coli, M138, E. coli M 138, read-out: MIC
[8] = Escherichia coli, M36, E. coli M 36, read-out: MIC
[9] = Escherichia coli, M49, E. coli M 49, read-out: MIC
[10] = Escherichia coli, M50, E. coli M 50, read-out: MIC
[11] = Klebsiella pneumoniae, ATCC700603, compound tested alone, read-out: MIC
[12] = Klebsiella pneumoniae, H521, K. pneumoniae H 521, read-out: MIC
[13] = Klebsiella pneumoniae, H522, K. pneumoniae H 522, read-out: MIC
[14] = Klebsiella pneumoniae, H523, K. pneumoniae H 523, read-out: MIC
[15] = Klebsiella pneumoniae, H525, K. pneumoniae H 525, read-out: MIC
[16] = Proteus mirabilis, S137B, read-out: MIC

Which MIC (E. coli 13351; [2]) does the source give for `O=C(NOC[C@H]1C[C@H](n2nccn2)CN1)[C@@H]1CC[C@@H]2CN1C(=O)N2OS(=O)(=O)O` [Example 13] here?
The MIC was 2 mg/L.

What about the MIC (E. coli 13352; [3]) of the same compound?
The MIC was 2 mg/L.

And the MIC (E. coli 13353; [4])?
Its MIC is 1 mg/L.

And the MIC (E. coli 7 MP; [5])?
The MIC was 4 mg/L.

And the MIC (E. coli H 483; [6])?
The MIC was > 32 mg/L.

And the MIC (E. coli M 138; [7])?
Its MIC is 1 mg/L.

And the MIC (E. coli M 36; [8])?
The MIC was 1 mg/L.

And the MIC (E. coli M 49; [9])?
Its MIC is 8 mg/L.

What about the MIC (E. coli M 50; [10]) of the same compound?
Its MIC is 2 mg/L.

And the MIC [1, 11]?
The MIC was > 32 mg/L.

What about the MIC (K. pneumoniae H 521; [12]) of the same compound?
Its MIC is 2 mg/L.

What about the MIC (K. pneumoniae H 522; [13]) of the same compound?
The MIC was 2 mg/L.

What about the MIC (K. pneumoniae H 523; [14]) of the same compound?
Its MIC is 2 mg/L.

And the MIC (K. pneumoniae H 525; [15])?
The MIC was 2 mg/L.

What about the MIC (P. mirabilis S 137B; [16]) of the same compound?
The MIC was > 32 mg/L.

How did the MIC (E. coli 13351; E. coli 13351) turn out when `CC(C)(O/N=C(\C(=O)N[C@@H]1C(=O)N2C(C(=O)[O-])=C(C[n+]3ccccc3)CS[C@H]12)c1csc(N)n1)C(=O)O` [Ceftazidime, reference compound] was run?
Its MIC is 16 mg/L.

What about the MIC (E. coli 13352; E. coli 13352) of the same compound?
The MIC was >32 mg/L.

What about the MIC (E. coli 13353; E. coli 13353) of the same compound?
Its MIC is >32 mg/L.

And the MIC (E. coli 7 MP)?
The MIC was >32 mg/L.

What about the MIC (E. coli H 483; compound tested alone) of the same compound?
Its MIC is >32 mg/L.

And the MIC (E. coli M 138; E. coli M 138)?
Its MIC is >32 mg/L.

And the MIC (E. coli M 36; E. coli M 36)?
Its MIC is >32 mg/L.

And the MIC (E. coli M 49; E. coli M 49)?
The MIC was >32 mg/L.

What about the MIC (E. coli M 50; E. coli M 50) of the same compound?
Its MIC is >32 mg/L.

What about the MIC ([1]; compound tested alone) of the same compound?
The MIC was 16 mg/L.

And the MIC (K. pneumoniae H 521; K. pneumoniae H 521)?
The MIC was >32 mg/L.

And the MIC (K. pneumoniae H 522; K. pneumoniae H 522)?
The MIC was >32 mg/L.

What about the MIC (K. pneumoniae H 523; K. pneumoniae H 523) of the same compound?
The MIC was >32 mg/L.

What about the MIC (K. pneumoniae H 525; K. pneumoniae H 525) of the same compound?
Its MIC is >32 mg/L.

What about the MIC (P. mirabilis S 137B) of the same compound?
The MIC was >32 mg/L.

What does the source list for `O=C(NOC[C@H]1C[C@H](n2cnnn2)CN1)[C@@H]1CC[C@@H]2CN1C(=O)N2OS(=O)(=O)O` [Example 12]?
MIC (E. coli 13351; [2]): 4 mg/L; MIC (E. coli 13352; [3]): 2 mg/L; MIC (E. coli 13353; [4]): 2 mg/L; MIC (E. coli 7 MP; [5]): 8 mg/L; MIC (E. coli H 483; [6]): > 32 mg/L; MIC (E. coli M 138; [7]): 2 mg/L; MIC (E. coli M 36; [8]): 2 mg/L; MIC (E. coli M 49; [9]): 16 mg/L; MIC (E. coli M 50; [10]): 2 mg/L; MIC [1, 11]: > 32 mg/L; MIC (K. pneumoniae H 521; [12]): 4 mg/L; MIC (K. pneumoniae H 522; [13]): 4 mg/L; MIC (K. pneumoniae H 523; [14]): 4 mg/L; MIC (K. pneumoniae H 525; [15]): 4 mg/L; MIC (P. mirabilis S 137B; [16]): > 32 mg/L

For `O=C(NOC[C@H]1C[C@H](n2ncnn2)CN1)[C@@H]1CC[C@@H]2CN1C(=O)N2OS(=O)(=O)O` [Example 11], which MIC (E. coli 13351; [2]) is on record?
Its MIC is 4 mg/L.

And the MIC (E. coli 13352; [3])?
Its MIC is 2 mg/L.

And the MIC (E. coli 13353; [4])?
The MIC was 2 mg/L.

And the MIC (E. coli 7 MP; [5])?
Its MIC is 8 mg/L.

What about the MIC (E. coli H 483; [6]) of the same compound?
The MIC was > 32 mg/L.

And the MIC (E. coli M 138; [7])?
The MIC was 2 mg/L.

What about the MIC (E. coli M 36; [8]) of the same compound?
Its MIC is 2 mg/L.

What about the MIC (E. coli M 49; [9]) of the same compound?
The MIC was 16 mg/L.

What about the MIC (E. coli M 50; [10]) of the same compound?
The MIC was 2 mg/L.

What about the MIC [1, 11] of the same compound?
The MIC was > 32 mg/L.

And the MIC (K. pneumoniae H 521; [12])?
The MIC was 4 mg/L.

And the MIC (K. pneumoniae H 522; [13])?
The MIC was 4 mg/L.

And the MIC (K. pneumoniae H 523; [14])?
The MIC was 4 mg/L.

And the MIC (K. pneumoniae H 525; [15])?
The MIC was 2 mg/L.

And the MIC (P. mirabilis S 137B; [16])?
Its MIC is > 32 mg/L.

For `O=C(NOC[C@@H]1C[C@H](n2cnnn2)CN1)[C@@H]1CC[C@@H]2CN1C(=O)N2OS(=O)(=O)O` [Example 4], which MIC (E. coli 13351; [2]) is on record?
The MIC was 4 mg/L.

What about the MIC (E. coli 13352; [3]) of the same compound?
The MIC was 2 mg/L.

What about the MIC (E. coli 13353; [4]) of the same compound?
Its MIC is 2 mg/L.

What about the MIC (E. coli 7 MP; [5]) of the same compound?
Its MIC is 4 mg/L.

What about the MIC (E. coli H 483; [6]) of the same compound?
Its MIC is > 32 mg/L.

And the MIC (E. coli M 138; [7])?
The MIC was 2 mg/L.

And the MIC (E. coli M 36; [8])?
Its MIC is 2 mg/L.

And the MIC (E. coli M 49; [9])?
Its MIC is 8 mg/L.

What about the MIC (E. coli M 50; [10]) of the same compound?
The MIC was 2 mg/L.

And the MIC [1, 11]?
The MIC was > 32 mg/L.

And the MIC (K. pneumoniae H 521; [12])?
Its MIC is 4 mg/L.

What about the MIC (K. pneumoniae H 522; [13]) of the same compound?
Its MIC is 4 mg/L.

And the MIC (K. pneumoniae H 523; [14])?
The MIC was 4 mg/L.

And the MIC (K. pneumoniae H 525; [15])?
Its MIC is 4 mg/L.

What about the MIC (P. mirabilis S 137B; [16]) of the same compound?
The MIC was > 32 mg/L.

For `O=C(NOC[C@H]1C[C@H](n2ccnn2)CN1)[C@@H]1CC[C@@H]2CN1C(=O)N2OS(=O)(=O)O` [Example 14], which MIC (E. coli 13351; [2]) is on record?
The MIC was 4 mg/L.

And the MIC (E. coli 13352; [3])?
Its MIC is 4 mg/L.

What about the MIC (E. coli 13353; [4]) of the same compound?
The MIC was 2 mg/L.

And the MIC (E. coli 7 MP; [5])?
The MIC was 4 mg/L.

What about the MIC (E. coli H 483; [6]) of the same compound?
Its MIC is > 32 mg/L.

And the MIC (E. coli M 138; [7])?
Its MIC is 2 mg/L.

And the MIC (E. coli M 36; [8])?
The MIC was 2 mg/L.

And the MIC (E. coli M 49; [9])?
The MIC was 8 mg/L.

What about the MIC (E. coli M 50; [10]) of the same compound?
Its MIC is 2 mg/L.

What about the MIC [1, 11] of the same compound?
Its MIC is > 32 mg/L.

What about the MIC (K. pneumoniae H 521; [12]) of the same compound?
Its MIC is 4 mg/L.

And the MIC (K. pneumoniae H 522; [13])?
The MIC was 4 mg/L.

What about the MIC (K. pneumoniae H 523; [14]) of the same compound?
Its MIC is 4 mg/L.

What about the MIC (K. pneumoniae H 525; [15]) of the same compound?
The MIC was 4 mg/L.

And the MIC (P. mirabilis S 137B; [16])?
Its MIC is > 32 mg/L.
